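Values below derive from 48-hour exposures of cells grown in 96-well plates, with endpoints linearly interpolated between the two concentrations bracketing the appropriate inhibition level. GI50: concentration for 50% inhibition of growth. At the TGI there is no net growth.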
What was measured:
Test in all cases: NCI anticancer screen, dose series, 48 h
DU-145 prostate = tested on: DU-145 prostate
COLO 205 colon = tested on: COLO 205 colon
NCI-H522 lung = tested on: NCI-H522 lung
NCI/ADR-RES ovarian = tested on: NCI/ADR-RES ovarian
OVCAR-3 ovarian = tested on: OVCAR-3 ovarian
HCT-15 colon = tested on: HCT-15 colon
M14 melanoma = tested on: M14 melanoma
UO-31 renal = tested on: UO-31 renal
MCF7 breast = tested on: MCF7 breast
SNB-19 CNS = tested on: SNB-19 CNS
SF-539 CNS = tested on: SF-539 CNS
LOX IMVI melanoma = tested on: LOX IMVI melanoma
MDA-MB-231 breast = tested on: MDA-MB-231 breast
OVCAR-4 ovarian = tested on: OVCAR-4 ovarian
SF-268 CNS = tested on: SF-268 CNS
HT29 colon = tested on: HT29 colon
TK-10 renal = tested on: TK-10 renal
SF-295 CNS = tested on: SF-295 CNS
HCT-116 colon = tested on: HCT-116 colon
SW-620 colon = tested on: SW-620 colon
K-562 leukemia = tested on: K-562 leukemia
RPMI-8226 leukemia = tested on: RPMI-8226 leukemia
MOLT-4 leukemia = tested on: MOLT-4 leukemia
SK-OV-3 ovarian = tested on: SK-OV-3 ovarian
U251 CNS = tested on: U251 CNS
T-47D breast = tested on: T-47D breast
A549 NSCLC = tested on: A549 NSCLC
KM12 colon = tested on: KM12 colon
SNB-75 CNS = tested on: SNB-75 CNS
NCI-H460 lung = tested on: NCI-H460 lung
UACC-62 melanoma = tested on: UACC-62 melanoma
SK-MEL-28 melanoma = tested on: SK-MEL-28 melanoma
IGROV1 ovarian = tested on: IGROV1 ovarian
RXF 393 renal = tested on: RXF 393 renal
NCI-H23 lung = tested on: NCI-H23 lung
SK-MEL-5 melanoma = tested on: SK-MEL-5 melanoma
BT-549 breast = tested on: BT-549 breast
UACC-257 melanoma = tested on: UACC-257 melanoma
HOP-62 NSCLC = tested on: HOP-62 NSCLC
CAKI-1 renal = tested on: CAKI-1 renal
HOP-92 NSCLC = tested on: HOP-92 NSCLC
786-0 renal = tested on: 786-0 renal
HL-60(TB) leukemia = tested on: HL-60(TB) leukemia
SN12C renal = tested on: SN12C renal
MDA-MB-435 = tested on: MDA-MB-435
SK-MEL-2 melanoma = tested on: SK-MEL-2 melanoma
SR leukemia = tested on: SR leukemia
OVCAR-8 ovarian = tested on: OVCAR-8 ovarian
EKVX NSCLC = tested on: EKVX NSCLC
PC-3 prostate = tested on: PC-3 prostate
ACHN renal = tested on: ACHN renal

CN(C)CCNC(=O)c1ccc2oc3cc4ccccc4c(=O)n3c2c1
GI50 (DU-145 prostate): 33.4 µM | TGI (DU-145 prostate): > 100 µM | GI50 (COLO 205 colon): 32.1 µM | TGI (COLO 205 colon): > 100 µM | GI50 (NCI-H522 lung): 18.1 µM | TGI (NCI-H522 lung): 39.8 µM | GI50 (NCI/ADR-RES ovarian): 37.4 µM | TGI (NCI/ADR-RES ovarian): > 100 µM | GI50 (OVCAR-3 ovarian): 15.4 µM | TGI (OVCAR-3 ovarian): 52.6 µM | GI50 (HCT-15 colon): 28.2 µM | TGI (HCT-15 colon): > 100 µM | GI50 (M14 melanoma): 52 µM | TGI (M14 melanoma): > 100 µM | GI50 (UO-31 renal): 19.6 µM | TGI (UO-31 renal): 47.5 µM | GI50 (MCF7 breast): 64.1 µM | TGI (MCF7 breast): > 100 µM | GI50 (SNB-19 CNS): 40.9 µM | TGI (SNB-19 CNS): > 100 µM | GI50 (SF-539 CNS): 22 µM | TGI (SF-539 CNS): 47.3 µM | GI50 (LOX IMVI melanoma): 42.2 µM | TGI (LOX IMVI melanoma): > 100 µM | GI50 (MDA-MB-231 breast): 31.8 µM | TGI (MDA-MB-231 breast): > 100 µM | GI50 (OVCAR-4 ovarian): 7.6 µM | TGI (OVCAR-4 ovarian): > 100 µM | GI50 (SF-268 CNS): 32.6 µM | TGI (SF-268 CNS): 93.2 µM | GI50 (HT29 colon): 28 µM | TGI (HT29 colon): > 100 µM | GI50 (TK-10 renal): 21.6 µM | TGI (TK-10 renal): 72.3 µM | GI50 (SF-295 CNS): 28 µM | TGI (SF-295 CNS): > 100 µM | GI50 (HCT-116 colon): 41.6 µM | TGI (HCT-116 colon): > 100 µM | GI50 (SW-620 colon): 28.6 µM | TGI (SW-620 colon): > 100 µM | GI50 (K-562 leukemia): 64.1 µM | TGI (K-562 leukemia): > 100 µM | GI50 (RPMI-8226 leukemia): 51.2 µM | TGI (RPMI-8226 leukemia): > 100 µM | GI50 (MOLT-4 leukemia): 64.2 µM | TGI (MOLT-4 leukemia): > 100 µM | GI50 (SK-OV-3 ovarian): 63.8 µM | TGI (SK-OV-3 ovarian): > 100 µM | GI50 (U251 CNS): 34.3 µM | TGI (U251 CNS): > 100 µM | GI50 (T-47D breast): 34.6 µM | TGI (T-47D breast): > 100 µM | GI50 (A549 NSCLC): 26.2 µM | TGI (A549 NSCLC): 97 µM | GI50 (KM12 colon): 10.5 µM | TGI (KM12 colon): 77.8 µM | GI50 (SNB-75 CNS): 22.9 µM | TGI (SNB-75 CNS): 61.2 µM | GI50 (NCI-H460 lung): 42.2 µM | TGI (NCI-H460 lung): > 100 µM | GI50 (UACC-62 melanoma): 48.4 µM | TGI (UACC-62 melanoma): > 100 µM | GI50 (SK-MEL-28 melanoma): 26.6 µM | TGI (SK-MEL-28 melanoma): > 100 µM | GI50 (IGROV1 ovarian): 23.1 µM | TGI (IGROV1 ovarian): > 100 µM | GI50 (RXF 393 renal): 23.8 µM | TGI (RXF 393 renal): 70.4 µM | GI50 (NCI-H23 lung): 17.4 µM | TGI (NCI-H23 lung): 57.8 µM | GI50 (SK-MEL-5 melanoma): 22.6 µM | TGI (SK-MEL-5 melanoma): 43.6 µM | GI50 (BT-549 breast): 27.4 µM | TGI (BT-549 breast): 66.2 µM | GI50 (UACC-257 melanoma): 23.9 µM | TGI (UACC-257 melanoma): 58 µM | GI50 (HOP-62 NSCLC): > 100 µM | TGI (HOP-62 NSCLC): > 100 µM | GI50 (CAKI-1 renal): 17.1 µM | TGI (CAKI-1 renal): 55.2 µM | GI50 (HOP-92 NSCLC): > 100 µM | TGI (HOP-92 NSCLC): > 100 µM | GI50 (786-0 renal): 71.6 µM | TGI (786-0 renal): > 100 µM | GI50 (HL-60(TB) leukemia): 30.4 µM | TGI (HL-60(TB) leukemia): > 100 µM | GI50 (SN12C renal): 46.6 µM | TGI (SN12C renal): > 100 µM | GI50 (MDA-MB-435): 42.1 µM | TGI (MDA-MB-435): > 100 µM | GI50 (SK-MEL-2 melanoma): 21.4 µM | TGI (SK-MEL-2 melanoma): 63.5 µM | GI50 (SR leukemia): 32.9 µM | TGI (SR leukemia): > 100 µM | GI50 (OVCAR-8 ovarian): 23.1 µM | TGI (OVCAR-8 ovarian): 76.2 µM | GI50 (EKVX NSCLC): 27.5 µM | TGI (EKVX NSCLC): > 100 µM | GI50 (PC-3 prostate): 61.6 µM | TGI (PC-3 prostate): > 100 µM | GI50 (ACHN renal): 15.1 µM | TGI (ACHN renal): 37.6 µM
